The record followed here is US4194009A, “Aryloxyphenylpropylamines for obtaining a psychotropic effect” (Eli Lilly and Company, priority 1976, dated 1980).

Where two headings read alike, the source gives them in different places.

The test system of experiment [1] is serotonin uptake by synaptosomes from rat brain. The experiment can be described thus: blockage of serotonin uptake by synaptosomes from rat brain. Type of experiment: biochemical. The settings on record: Table 1, serotonin 0.1 μM. The source says: In the tables, column 1 gives the R substituent on the 3-phenylpropylamine and columns 2-4, the concentration in micrograms per ml. that blocks the uptake of a particular amine by 50 percent for the amines--norephinephrine, serotonin, and dopamine. At the head of each column is given the concentration of the particular monoamine used in the experiment.

Experiment [2] has as its system dopamine uptake by synaptosomes from rat brain. The experiment in a line: blockage of dopamine uptake by synaptosomes from rat brain. The class given is biochemical. The following applies: Table 1, dopamine 0.2 μM. The source says:
(§1) This blockade is shown both in vitro with radioactive labelled compounds to determine the amount of monoamine uptake by synaptosomes from rat brain, and in vivo by a variety of methods. Among the physiologically active monoamines whose uptake is blocked by the compounds of this invention are included serotonin, norepinephrine and dopamine (3,4-dihydroxyphenylethylamine). […] Tables 1 and 2 which follow set forth the results of some of the in vitro determinations of the blockage of monoamine uptake by the compounds of this invention. In the tables, column 1 gives the R substituent on the 3-phenylpropylamine and columns 2-4, the concentration in micrograms per ml. that blocks the uptake of a particular amine by 50 percent for the amines--norephinephrine, serotonin, and dopamine. At the head of each column is given the concentration of the particular monoamine used in the experiment.

The test system of experiment [3] is norepinephrine uptake by synaptosomes from rat brain. The experiment can be described thus: blockage of norepinephrine uptake by synaptosomes from rat brain. Type of experiment: biochemical. The settings on record: Table 1, norepinephrine 0.48 μM.
From the text: as §1

Experiment [4] has as its system mice. The experiment in a line: apomorphine hypothermia antagonism test. The following applies: for Percent Antagonism Apomorphine Pre-30 min. / inhibition in vivo at 3 mg/kg / inhibition in vivo at 10 mg/kg / inhibition in vivo at 0.3 mg/kg / inhibition in vivo at 1 mg/kg: mice; for inhibition in vivo at 3 mg/kg / inhibition in vivo at 10 mg/kg / inhibition in vivo at 0.3 mg/kg / inhibition in vivo at 1 mg/kg: Mus musculus, read-out: Percent Antagonism Apomorphine Pre-30 min.; for antagonism of apomorphine hypothermia: in words. Type of experiment: in vivo. Here is the method:
(§2) The apomorphine hypothermia antagonism test is carried out as follows: mice are injected with a dose of apomorphine known to reduce body temperature approximately 4° C. The compound under test is injected 1/2 hour before the injection of the apomorphine and the temperatures measured 1/2 hour after injection. The degree of antagonism is expressed as a percent reduction (as compared with controls) of the temperature decrease produced by the injection of the apomorphine. The reserpine hypothermia reversal test is carried out as follows: groups of mice are injected with reserpine and 16.5 hours later are injected intraperitoneally with graded doses of the drug, a different dose level being given to each group of mice. Temperatures are measured at 1 hour after injection of the drug under test and again the effectiveness of the drug is expressed as a percentage decrease in the hypothermia induced by the injection of reserpine as compared with the control group. In the tables which follow, Table 4 gives the results in the apomorphine antagonism and reserpine reversal hypothermia tests for the secondary amines of this invention. In the table, the first column gives the substituent attached to the oxygen atom at the 3 position of the propylamine chain; columns 2 to 4 the percent antagonism against apomorphine hypothermia at dose levels of 0.3, 1 and 3 mg./kg. and columns 5-7 the percent reversal of reserpine hypothermia at the same dose levels.

Experiment [5] has as its system mice. The experiment in a line: reserpine hypothermia reversal test. The class given is in vivo. The following applies: for reversal of reserpine hypothermia: in words. Here is the method: as §2
[6] abbreviates: Table 5, mice, 1 mg./kg. intraperitoneally.
[7] abbreviates: Table 5, mice, 3 mg./kg. intraperitoneally.
Setting [8] is: Table 5, mice, 10 mg./kg. intraperitoneally.
Where [9] appears, read: Table 4, mice, 1 mg./kg. intraperitoneally.
The mark [10] stands for this setting: Table 4, mice, 3 mg./kg. intraperitoneally.

On to `CN(C)CCC(Oc1ccc2ccccc2c1)c1ccccc1` (stereo not drawn) [β-naphthyl, N,N-dimethyl 3-(β-naphthyloxy)-3-phenylpropylamine], for which the “Concentration in mcg./ml. that blocks 50% of amine uptake, Serotonin” value in experiment [1] amounted to 1 µg/mL. Further, the “Concentration in mcg./ml. that blocks 50% of amine uptake, Dopamine” value in experiment [2] was > 100 µg/mL. In experiment [3], the “Concentration in mcg./ml. that blocks 50% of amine uptake, Norepinephrine” value is > 100 µg/mL.
For the compound `CN(C)CCC(Oc1cccc2ccccc12)c1ccccc1` (stereo not drawn) [α-naphthyl, N,N-dimethyl 3-(α-naphthyloxy)-3-phenylpropylamine], the “Concentration in mcg./ml. that blocks 50% of amine uptake, Serotonin” value in experiment [1] was “.03 µg/mL”. The “Percent Antagonism Apomorphine Pre-30 min.” value is on record as -17% with mice [4] (Table 5, 1 mg./kg.); -10% in the experiment on mice [4] (Table 5, 3 mg./kg.); -7% in the experiment on mice [4] (Table 5, 10 mg./kg.). Further, the results for the “Percent Antagonism Reserpine Post-60 min.” value in the experiment on mice [5] (setting [6]), in the experiment on mice [5] (setting [7]) and in the experiment with mice [5] (setting [8]) were 15%, 4% and 15%, respectively. Further, the “Concentration in mcg./ml. that blocks 50% of amine uptake, Dopamine” value in experiment [2] stood at 2.5 µg/mL. Further, in experiment [3], the “Concentration in mcg./ml. that blocks 50% of amine uptake, Norepinephrine” value was 3 µg/mL.
Consider `CNCCC(Oc1cccc(OC)c1)c1ccccc1` (centres unmarked) [m-anisyl, N-methyl 3-phenyl-3-(m-methoxyphenoxy)propylamine], for which the “Percent Antagonism Apomorphine Pre-30 min.” value is given as 15% with mice [4] (Table 4, 0.3 mg./kg.); 15% in the experiment with mice [4] (Table 4, 1 mg./kg.); 71% with mice [4] (Table 4, 3 mg./kg.); -12% with mice [4] (Table 5, 1 mg./kg.); -7% in the experiment with mice [4] (Table 5, 3 mg./kg.); -5% in the experiment with mice [4] (Table 5, 10 mg./kg.). The “Percent Antagonism Reserpine Post-60 min.” value with mice [5] (Table 4, mice, 0.3 mg./kg. intraperitoneally) is on record as 8%; with mice [5] (setting [9]), 21%; in the experiment on mice [5] (setting [10]), 21%; in the experiment on mice [5] (setting [6]), -1%; with mice [5] (setting [7]) it was 6%; with mice [5] (setting [8]), 5%.
As for `COc1cccc(OC(CCN(C)C)c2ccccc2)c1` (centres unmarked) [m-methoxyphenyl, N,N-dimethyl 3-phenyl-3-(m-methoxyphenoxy)propylamine], in experiment [1], the “Concentration in mcg./ml. that blocks 50% of amine uptake, Serotonin” value is “.08 µg/mL”. Moreover, the “Concentration in mcg./ml. that blocks 50% of amine uptake, Dopamine” value in experiment [2] is “.5 µg/mL”. The “Concentration in mcg./ml. that blocks 50% of amine uptake, Norepinephrine” value in experiment [3] is “.2 µg/mL”.
For `COc1ccc(OC(CCN(C)C)c2ccccc2)cc1` (centres unmarked) [p-anisyl], the inhibition in vivo at 3 mg/kg is 25% in the experiment with mice [4] (Table 5, 3 mg./kg.) and 67% in the experiment with mice [5] (Mus musculus, ip, 1 h, Table 5, mice, 3 mg./kg. intraperitoneally, read-out: Percent Antagonism Reserpine Post-60 min.).
In the case of `Cc1cc(F)ccc1OC(CCN(C)C)c1ccccc1` (centres unmarked) [4-fluoro-o-tolyl, N,N-dimethyl 3-(p-fluoro-o-tolyloxy)-3-phenylpropylamine], in experiment [1], the “Concentration in mcg./ml. that blocks 50% of amine uptake, Serotonin” value is “.6 µg/mL”. Further, the “Concentration in mcg./ml. that blocks 50% of amine uptake, Dopamine” value in experiment [2] was 40 µg/mL. In experiment [3], the “Concentration in mcg./ml. that blocks 50% of amine uptake, Norepinephrine” value worked out at 2.5 µg/mL.
Take `CN(C)CCCN1c2ccccc2CCc2ccccc21` [imipramine, reference compound]: the “antagonism of apomorphine hypothermia” value in the experiment on mice [4] is “active”. Besides, the “reversal of reserpine hypothermia” value with mice [5] is “active”.
Take `CN(C)CCC(Oc1ccccc1F)c1ccccc1` (centres unmarked) [o-fluorophenyl]: the inhibition in vivo at 10 mg/kg in the experiment on mice [4] (Table 5, 10 mg./kg.) was 3%.
With `CNCCC=C1c2ccccc2CCc2ccccc21` [nortriptyline, reference compound], the “antagonism of apomorphine hypothermia” value with mice [4] was “active”. In addition, the “reversal of reserpine hypothermia” value with mice [5] was “active”.
As for `CN(C)CCC(Oc1cccc(C(F)(F)F)c1)c1ccccc1` (centres unmarked) [m-trifluoromethylphenyl, N,N-dimethyl 3-phenyl-3-(m-trifluoromethylphenoxy) propylamine], the “Concentration in mcg./ml. that blocks 50% of amine uptake, Serotonin” value in experiment [1] was “.18 µg/mL”. Moreover, the “Concentration in mcg./ml. that blocks 50% of amine uptake, Dopamine” value in experiment [2] was > 100 µg/mL. Besides, in experiment [3], the “Concentration in mcg./ml. that blocks 50% of amine uptake, Norepinephrine” value amounted to 8 µg/mL.
For `CN(C)CCC(Oc1ccccc1C(C)(C)C)c1ccccc1` (centres unmarked) [o-t-butylphenyl, N,N-dimethyl 3-phenyl-3-(o-t-butylphenoxy)propylamine], in that order: 40 µg/mL, > 100 µg/mL and 1.5 µg/mL.
On to `CN(C)CCC(Oc1ccccc1Br)c1ccccc1` (centres unmarked) [o-bromophenyl, N,N-dimethyl 3-(o-bromophenoxy)-3-phenylpropylamine], for which, in experiment [1], the “Concentration in mcg./ml. that blocks 50% of amine uptake, Serotonin” value is “.1 µg/mL”. Further, the “Percent Antagonism Apomorphine Pre-30 min.” value came to 19% in the experiment with mice [4] (Table 5, 1 mg./kg.); 40% in the experiment with mice [4] (Table 5, 3 mg./kg.); 47% with mice [4] (Table 5, 10 mg./kg.). Further, the results for the “Percent Antagonism Reserpine Post-60 min.” value in the experiment with mice [5] (setting [7]) and in the experiment with mice [5] (setting [8]) were 18% and 30%, respectively. Also, in experiment [2], the “Concentration in mcg./ml. that blocks 50% of amine uptake, Dopamine” value stood at 5 µg/mL.
`CN(C)CCC(Oc1ccc(F)cc1F)c1ccccc1` (centres unmarked) [2,4-difluorophenyl, N,N-dimethyl 3-(2',4'-difluorophenoxy)-3-phenylpropylamine]: the “Concentration in mcg./ml. that blocks 50% of amine uptake, Serotonin” value in experiment [1] is “.3 µg/mL”. The inhibition in vivo at 0.3 mg/kg in the experiment on mice [4] (Table 4, 0.3 mg./kg.) came to 20%. Further, the inhibition in vivo at 1 mg/kg with mice [4] (Table 4, 1 mg./kg.) turned out to be 53%; in the experiment with mice [4] (Table 5, 1 mg./kg.), 26%. Besides, the inhibition in vivo at 3 mg/kg in the experiment with mice [4] (Table 4, 3 mg./kg.) came out at 64%; with mice [4] (Table 5, 3 mg./kg.), 55%. Moreover, the inhibition in vivo at 10 mg/kg with mice [4] (Table 5, 10 mg./kg.) came to 98%. Further, the “Concentration in mcg./ml. that blocks 50% of amine uptake, Dopamine” value in experiment [2] came out at 10 µg/mL. In experiment [3], the “Concentration in mcg./ml. that blocks 50% of amine uptake, Norepinephrine” value is “.2 µg/mL”.
For `CC(C)c1ccccc1OC(CCN(C)C)c1ccccc1` (centres unmarked) [o-isopropylphenyl], the “Concentration in mcg./ml. that blocks 50% of amine uptake, Serotonin” value in experiment [1] was > 100 µg/mL. Further, the inhibition in vivo at 1 mg/kg with mice [4] (Table 5, 1 mg./kg.) worked out at 17%. Also, the inhibition in vivo at 3 mg/kg with mice [4] (Table 5, 3 mg./kg.) was 39%. In addition, the inhibition in vivo at 10 mg/kg in the experiment on mice [4] (Table 5, 10 mg./kg.) worked out at 65%. Further, the inhibition in vivo at 0.3 mg/kg in the experiment with mice [4] (Table 5, .3 mg./kg.) amounted to 3%. For the same compound, in experiment [2], the “Concentration in mcg./ml. that blocks 50% of amine uptake, Dopamine” value was > 100 µg/mL. Further, the “Concentration in mcg./ml. that blocks 50% of amine uptake, Norepinephrine” value in experiment [3] is 1.5 µg/mL.
On to `Cc1cccc(OC(CCN(C)C)c2ccccc2)c1` (centres unmarked) [m-tolyl, N,N-dimethyl 3-phenyl-3-(m-tolyloxy)propylamine], for which the “Concentration in mcg./ml. that blocks 50% of amine uptake, Serotonin” value in experiment [1] is “.7 µg/mL”. For the same compound, the “Concentration in mcg./ml. that blocks 50% of amine uptake, Norepinephrine” value in experiment [3] came out at 12 µg/mL.
`CN(C)CCC(Oc1ccccc1C(F)(F)F)c1ccccc1` (centres unmarked) [o-trifluoromethylphenyl, N,N-dimethyl 3-(o-trifluoromethylphenoxy)-3-phenylpropylamine]: the “Concentration in mcg./ml. that blocks 50% of amine uptake, Serotonin” value in experiment [1] was “.16 µg/mL”. In addition, the “Percent Antagonism Apomorphine Pre-30 min.” value in the experiment on mice [4] (Table 4, 1 mg./kg.) is 13%; with mice [4] (Table 4, 3 mg./kg.) it was 28%; in the experiment with mice [4] (Table 5, 1 mg./kg.) it was 21%; in the experiment with mice [4] (Table 5, 3 mg./kg.) it was 32%; in the experiment with mice [4] (Table 5, 10 mg./kg.), 55%. The “Percent Antagonism Reserpine Post-60 min.” value with mice [5] (setting [9]) is reported as 9%; with mice [5] (setting [10]), 8%; in the experiment with mice [5] (setting [8]), 10%. Moreover, in experiment [3], the “Concentration in mcg./ml. that blocks 50% of amine uptake, Norepinephrine” value is 70 µg/mL.
Consider `C=CCc1ccccc1OC(CCN(C)C)c1ccccc1` (centres unmarked) [o-allylphenyl, N,N-dimethyl 3-phenyl-3-(o-allylphenoxy)propylamine], for which the inhibition in vivo at 3 mg/kg in the experiment on mice [4] (Table 5, 3 mg./kg.) stood at 11%. In the experiment on mice [4] (Table 5, 10 mg./kg.), the inhibition in vivo at 10 mg/kg is 67%.
